Measurements reported in ChEMBL document CHEMBL3526092 (Drug Metab Dispos, 2012).

Legend:
CYP3A4 [1] = target: T1, CYP3A4 (Homo sapiens, UniProt P08684); test: Inhibition of human CYP3A4 expressed in supersomes assessed inhibition of 1'-OH midazolam formation preincubated with compound for 2.5 to 30 mins followed by addition of 20-fold diluted buffer with 20 uM MDZ by LC-MS method; format: ADME; conditions: supersomes expressing human CYP3A4, probe midazolam (20 uM; 1'-OH midazolam formation)
CYP3A5 [2] = target: T2, CYP3A5 (Homo sapiens, UniProt P20815); test: Inhibition of human CYP3A5 expressed in supersomes assessed inhibition of 1'-OH midazolam formation preincubated with compound for 2.5 to 30 mins followed by addition of 20-fold diluted buffer with 20 uM MDZ by LC-MS method; format: ADME; conditions: supersomes expressing human CYP3A5, probe midazolam (20 uM; 1'-OH midazolam formation)
CYP3A [3] = target: T3, CYP3A (Homo sapiens, UniProt P08684+P20815+P24462+Q9HB55); test: Inhibition of CYP3A-mediated 1'-OH midazolam formation in human liver microsomes preincubated for 15 mins before substrate addition by LC-MS method; format: ADME; conditions: probe midazolam (1'-OH midazolam formation)
CYP3A4 [4] = target: T1, CYP3A4; test: Ratio of IC50 for human CYP3A4 expressed in supersomes by coincubation study to IC50 for human CYP3A4 expressed in supersomes by preincubation study; conditions: supersomes expressing human CYP3A4, read-out: Ratio IC50
CYP3A5 [5] = target: T2, CYP3A5; test: Ratio of IC50 for human CYP3A5 expressed in supersomes by coincubation study to IC50 for human CYP3A5 expressed in supersomes by preincubation study; conditions: supersomes expressing human CYP3A5, read-out: Ratio IC50
Cytochrome P450 3A4 [6] = target: T4, Cytochrome P450 3A4 (Homo sapiens, UniProt P08684); test: Inhibition of human CYP3A4 expressed in supersomes assessed inhibition of 1'-OH midazolam formation by LC-MS method; format: ADME
Cytochrome P450 3A4 [7] = target: T4, Cytochrome P450 3A4; test: Inhibition of human CYP3A4 expressed in supersomes assessed inhibition of 1'-OH midazolam formation preincubated with compound before substrate addition by LC-MS method; format: ADME
CYP3A [8] = target: T3, CYP3A; test: Inhibition of CYP3A-mediated 1'-OH midazolam formation in human liver microsomes after 7.5 mins by LC-MS method; format: ADME; conditions: probe midazolam (1'-OH midazolam formation)
CYP3A [9] = target: T3, CYP3A; test: Competitive inhibition of CYP3A in human liver microsomes; format: ADME
CYP3A5 [10] = target: T2, CYP3A5; test: Inhibition of human CYP3A5 expressed in supersomes assessed inhibition of 1'-OH midazolam formation preincubated at 2 uM followed by addition of 20-fold diluted buffer with 20 uM MDZ by LC-MS method in presence of NADPH; format: ADME; conditions: supersomes expressing human CYP3A5, probe midazolam (20 uM; 1'-OH midazolam formation)
Cytochrome P450 3A5 [11] = target: T5, Cytochrome P450 3A5 (Homo sapiens, UniProt P20815); test: Inhibition of human CYP3A5 expressed in supersomes assessed inhibition of 1'-OH midazolam formation preincubated with compound before substrate addition by LC-MS method; format: ADME
Cytochrome P450 3A5 [12] = target: T5, Cytochrome P450 3A5; test: Reversible competitive inhibition of human CYP3A5-mediated 1'-OH midazolam formation in human liver microsomes after 7.5 mins by nonlinear regression study; format: ADME
CYP3A4 [13] = target: T1, CYP3A4; test: Inhibition of human CYP3A4 expressed in supersomes assessed inhibition of 1'-OH midazolam formation preincubated at 2 uM followed by addition of 20-fold diluted buffer with 20 uM MDZ by LC-MS method in presence of NADPH; format: ADME; conditions: supersomes expressing human CYP3A4, probe midazolam (20 uM; 1'-OH midazolam formation)
CYP3A [14] = target: T3, CYP3A; test: Reversible competitive inhibition of CYP3A-mediated 1'-OH midazolam formation in human liver microsomes after 7.5 mins by nonlinear regression study; format: ADME; conditions: probe midazolam (1'-OH midazolam formation)
Cytochrome P450 3A5 [15] = target: T5, Cytochrome P450 3A5; test: Inhibition of human CYP3A5 expressed in supersomes assessed inhibition of 1'-OH midazolam formation by LC-MS method; format: ADME
Cytochrome P450 3A4 [16] = target: T4, Cytochrome P450 3A4; test: Reversible competitive inhibition of human CYP3A4-mediated 1'-OH midazolam formation in human liver microsomes after 7.5 mins by nonlinear regression study; format: ADME
[17] = human, recombinant enzyme, TDE = time-dependent effect

T1 sequence (P08684 whole entry): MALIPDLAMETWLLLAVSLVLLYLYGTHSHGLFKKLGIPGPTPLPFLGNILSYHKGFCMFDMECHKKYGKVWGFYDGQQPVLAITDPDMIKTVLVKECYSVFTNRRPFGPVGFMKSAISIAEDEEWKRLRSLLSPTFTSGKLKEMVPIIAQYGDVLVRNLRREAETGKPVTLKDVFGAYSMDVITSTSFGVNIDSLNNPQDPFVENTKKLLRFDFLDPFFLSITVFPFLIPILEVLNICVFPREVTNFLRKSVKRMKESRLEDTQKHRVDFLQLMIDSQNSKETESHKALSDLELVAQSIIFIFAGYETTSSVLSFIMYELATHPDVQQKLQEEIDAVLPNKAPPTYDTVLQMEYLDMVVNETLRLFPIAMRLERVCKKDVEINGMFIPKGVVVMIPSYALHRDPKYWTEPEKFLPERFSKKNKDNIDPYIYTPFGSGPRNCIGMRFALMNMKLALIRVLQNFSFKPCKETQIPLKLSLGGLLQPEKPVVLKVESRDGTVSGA
T4 sequence (P08684 whole entry): as above
T2 sequence (P20815 whole entry): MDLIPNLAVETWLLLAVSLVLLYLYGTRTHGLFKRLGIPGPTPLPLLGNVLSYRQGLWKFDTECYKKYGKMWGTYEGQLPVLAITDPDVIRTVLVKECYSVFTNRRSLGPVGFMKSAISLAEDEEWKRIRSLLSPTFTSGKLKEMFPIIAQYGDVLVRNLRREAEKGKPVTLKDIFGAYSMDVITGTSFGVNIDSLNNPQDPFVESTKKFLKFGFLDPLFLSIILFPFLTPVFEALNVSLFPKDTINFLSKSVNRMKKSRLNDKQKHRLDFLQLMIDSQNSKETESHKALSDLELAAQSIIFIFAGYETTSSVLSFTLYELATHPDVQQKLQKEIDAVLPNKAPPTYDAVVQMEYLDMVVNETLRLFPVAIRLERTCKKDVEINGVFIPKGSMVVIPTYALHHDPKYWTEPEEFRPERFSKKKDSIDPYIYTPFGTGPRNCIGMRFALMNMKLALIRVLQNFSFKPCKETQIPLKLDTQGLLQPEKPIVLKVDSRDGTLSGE
T5 sequence (P20815 whole entry): as above

kinact (CYP3A4 [1]): 0.005 s⁻¹ | kinact (CYP3A5 [2]): 0.0035 s⁻¹ | IC50 (CYP3A [3]): 740 nM | IC50 (Cytochrome P450 3A4 [6]): 620 nM | inhibition (INH) (Cytochrome P450 3A4 [6]; [17]): tde | IC50 (Cytochrome P450 3A4 [7]): 120 nM | inhibition (INH) (Cytochrome P450 3A4 [7]; [17]): tde | IC50 at 7.5 min (CYP3A [8]): 940 nM | Ki (CYP3A [9]): 360 nM | inhibition at 2 µM (CYP3A5 [10]): 52% | IC50 (Cytochrome P450 3A5 [11]): 140 nM | inhibition (INH) (Cytochrome P450 3A5 [11]; [17]): tde | Ki (Cytochrome P450 3A5 [12]): 2690 nM | inhibition at 2 µM (CYP3A4 [13]): 42% | Ki at 7.5 min (CYP3A [14]): 610 nM | IC50 (Cytochrome P450 3A5 [15]): 630 nM | inhibition (INH) (Cytochrome P450 3A5 [15]; [17]): tde | Ki (Cytochrome P450 3A4 [16]): 2660 nM
Structure (SMILES): C=CC[C@@H]1/C=C(\C)C[C@H](C)C[C@H](OC)[C@H]2O[C@@](O)(C(=O)C(=O)N3CCCC[C@H]3C(=O)O[C@H](/C(C)=C/[C@@H]3CC[C@@H](O)[C@H](OC)C3)[C@H](C)[C@@H](O)CC1=O)[C@H](C)C[C@@H]2OC [TACROLIMUS ANHYDROUS]
IC50 shift (CYP3A4 [4]): 5 | IC50 shift (CYP3A5 [5]): 5
